# According to doi:10.1101/2020.08.18.255380v4 (biorxiv, 2021):
# Columns and labels:
# [1] = target: DalS (Salmonella enterica, UniProt Q8ZPA3); experiment: fluorescence; format: binding
# [2] = target: DalS (Salmonella enterica, UniProt Q8ZPA3, A147S/A76D/D216E/F117L/T197Y/Y148Q); experiment: biochemical
# [3] = target: DalS (Salmonella enterica, UniProt Q8ZPA3, A147S); experiment: biochemical
# [4] = target: DalS (Salmonella enterica, UniProt Q8ZPA3, A147S/F117L/Y148Q); experiment: biochemical
# [5] = target: DalS (Salmonella enterica, UniProt Q8ZPA3, Y148Q); experiment: biochemical
# [6] = target: DalS (Salmonella enterica, UniProt Q8ZPA3, A147S/A76D/D216E/F117L/S60R/Y148Q); experiment: biochemical
# [7] = target: DalS (Salmonella enterica, UniProt Q8ZPA3, F117L); experiment: biochemical
Compound,Kd [1],Kd [2],Kd [3],Kd [4],Kd [5],Kd [6],Kd [7]
NCC(=O)O [glycine],5 ± 1 µM,40 ± 2 µM,,,,,
C[C@@H](N)C(=O)O [D-alanine],5.4 ± 0.4 µM,14 ± 1 µM,0.62 ± 0.03 µM,,,,
N[C@H](CO)C(=O)O [D-serine],12 ± 1 µM,4.8 ± 0.2 µM,1.8 ± 0.4 µM,43 ± 1 µM,101 ± 3 µM,70 ± 17 µM,3.7 ± 0.2 µM
